Measured values: US6680003B2, “Chiral doping agents with variable spiral pitch induction and application thereof to a reflective color display” (Asulab S.A., priority 2000, dated 2004)

Experiment: Solubility in a nematic

2-[4′-(6-Acryloyloxyhexyloxy)-2′.5′-methylazophenyl-4-carbonyloy]—5-[4-(6-Acryloyloxyhexyloxy)benzoyl]-1.4:3.6-D-glucitol [Compound 209sf]
Solubility s: 4.0% < s % mass
